Data as given in patent EP0345931A1 (SCHERING CORPORATION, priority 1988, dated 1989).
Where two headings read alike, the source gives them in different places.

Columns and labels:
[1] = system: PAF-induced bronchospasm; experiment: PAF-induced bronchospasm in guinea pigs; type: in vivo; conditions: Cavia porcellus
[2] = system: PAF-induced lethality; experiment: PAF-induced lethality in mice; type: in vivo, Swiss-Webster female CFW mice; conditions: for ED50: Mus musculus, read-out: ED₅₀; for % Lethality: death recorded 1 hour after challenge; for effect on PAF-induced mortality: result in words
Description: Swiss-Webster female CFW mice (from Charles River), 5-10 per group, were injected through the tail vein with PAF in 0.5 ml of saline containing bovine serum albumin, and death was recorded.

[3] = system: ovalbumin-induced lethality (anaphylactic death); experiment: Anaphylactic death in ovalbumin-sensitized mice; type: in vivo, Swiss-Weber female CFW mice; conditions: for protecting sensitized animals from death: i.p. at doses as high as 50 mg/kg (A) and 20 mg/kg (B); for protecting sensitized animals from death / protection of sensitized animals from death / protection against allergic death (anaphylactic shock) / ovalbumin-induced lethality: result in words; for protection of sensitized animals from death: antihistamines given individually; for protection against allergic death (anaphylactic shock) / ovalbumin-induced lethality: ovalbumin sensitized mice
Description: Swiss-Weber female CFW mice (20-30 g) from Charles River were acclimatized for 7-14 days. Animals were sensitized by injecting intraperitoneally 0.5 ml of saline containing 1.6 mg of ovalbumin adsorbed to 100 mg of Al(OH)₃ gel. Ten to 15 days after sensitization, the animals, at least six per group, were injected intraveneously through the tail vein with 1.6 mg of ovalbumin in 0.5 ml of saline. One hundred percent of the sensitized animals died within 10-20 minutes. Injection of ovalbumin into normal mice caused no lethality. […] The compositions (given in dosages listed in the left-hand column of Table II below) were administered intraperitoneally either individually or in indicated combinations 30 minutes before challenge with albumin to sensitized mice. Death was recorded 1 hour after the challenge.

[4] = system: PAF-acether; conditions: BN 52021 2 mg/kg p.o. alone (non-active dose); cited from earlier work
[5] = compound 5 mg/kg i.p. 30 minutes before i.v. PAF (200 µg/kg)
[6] = compound 10 mg/kg i.p. 30 minutes before i.v. PAF (200 µg/kg)

Row | Structure (SMILES) | ED50 ([1]; iv, read-out: ED₅₀'s (i.v.)) | ED50 [2] | % Lethality [2, 5] | % Lethality [2, 6] | protecting sensitized animals from death [3] | effect on PAF-induced mortality [2] | protection of sensitized animals from death [3] | protection against allergic death (anaphylactic shock) / ovalbumin-induced lethality [3] | further results
1 | COc1cc([C@H]2CC[C@H](c3cc(OC)c(OC)c(OC)c3)O2)cc(OC)c1OC (relative stereo) [A, trans-2,5-bis(3,4,5-trimethoxyphenyl)tetrahydrofuran] | 0.4 mg/kg | 20 mg/kg | 84% | 72% | totally ineffective |  |  |  | % Lethality ([2]; compound 25 mg/kg i.p. 30 minutes before i.v. PAF (200 µg/kg)): 25%; % Lethality ([2]; compound 50 mg/kg i.p. 30 minutes before i.v. PAF (200 µg/kg)): 16%; % Survival ([3]; A 50 mg/kg i.p. 30 minutes before ovalbumin challenge, death recorded 1 hour after, pooled data from five experiments): 0%
2 | Cc1nnc2n1-c1sc(CCC(=O)N3CCOCC3)cc1C(c1ccccc1Cl)=NC2 [B, 4-(2-chlorophenyl)-9-methyl-6H-thieno[3,2-f][1,2,4]triazolo[4,3-a][1,4]diazepine-2-propionic acid morpholide] |  | 1.5 mg/kg | 16% | 0% | totally ineffective |  |  |  | ED50 ([1]; po, PAF-induced bronchospasm, read-out: ED₅₀ (p.o.)): 0.1 mg/kg; % Lethality ([2]; compound 1 mg/kg i.p. 30 minutes before i.v. PAF (200 µg/kg)): 84%; % Lethality ([2]; compound 2 mg/kg i.p. 30 minutes before i.v. PAF (200 µg/kg)): 20%; % Survival ([3]; B 5 mg/kg i.p. 30 minutes before ovalbumin challenge, death recorded 1 hour after, pooled data from five experiments): 0%
3 | C[C@@H]1C(=O)O[C@H]2[C@@H](O)[C@@]34[C@H]5C[C@@H](C(C)(C)C)[C@]36[C@@H](OC(=O)[C@@H]6O)O[C@@]4(C(=O)O5)[C@@]12O [BN 52021, ginkgolide B] |  |  |  |  |  |  |  |  | change of bronchospasm [4]: -10%
4 | CN1CCC(=C2c3ccccc3CC(=O)c3sccc32)CC1 [D, ketotifen] |  |  |  |  |  | Neither chlorpheniramine, clemastine nor ketotifen affected PAF-induced mortality | significant protection | only partial protection | % Lethality ([2]; compound 1.4 mg/kg i.p. 30 minutes before i.v. PAF (200 µg/kg)): 100%; % Survival ([3]; D 0.1 mg/kg i.p. 30 minutes before ovalbumin challenge, pooled data): 40%
5 | CN1CCC[C@@H]1CCO[C@](C)(c1ccccc1)c1ccc(Cl)cc1 [E, clemastine] |  |  |  |  |  | Neither chlorpheniramine, clemastine nor ketotifen affected PAF-induced mortality | significant protection | only partial protection | % Survival ([3]; E 0.2 mg/kg i.p. 30 minutes before ovalbumin challenge, pooled data): 45%
6 | Cc1nnc2n1-c1ccc(Cl)cc1C(c1ccccc1)=NC2 [alprazolam, 8-chloro-1-methyl-6-phenyl-4H-3-triazolo[4,3-a][1,2]-benzodiazepine] | 3 mg/kg |  |  |  |  |  |  |  | 
